Test results from PubChem BioAssay (NCI).
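Method: 48-hour compound exposure of cells in 96-well plates, five concentrations, linear interpolation of endpoints. TGI marks complete inhibition of growth.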

Key:
Test in all cases: growth of human tumour cells (NCI), 48 h
[1] = test system: 786-0 renal
[2] = test system: A498 renal
[3] = test system: A549 NSCLC
[4] = test system: ACHN renal
[5] = test system: CAKI-1 renal
[6] = test system: COLO 205 colon
[7] = test system: DMS 114 small cell lung
[8] = test system: DMS 273 small cell lung
[9] = test system: EKVX NSCLC
[10] = test system: HCC-2998 colon
[11] = test system: HCT-116 colon
[12] = test system: HCT-15 colon
[13] = test system: HL-60(TB) leukemia
[14] = test system: HOP-62 NSCLC
[15] = test system: HT29 colon
[16] = test system: IGROV1 ovarian
[17] = test system: K-562 leukemia
[18] = test system: KM12 colon
[19] = test system: KM20L2 colon
[20] = test system: LOX IMVI melanoma
[21] = test system: M14 melanoma
[22] = test system: M19-MEL melanoma
[23] = test system: MALME-3M melanoma
[24] = test system: MOLT-4 leukemia
[25] = test system: NCI-H226 lung
[26] = test system: NCI-H23 lung
[27] = test system: NCI-H460 lung
[28] = test system: OVCAR-3 ovarian
[29] = test system: OVCAR-4 ovarian
[30] = test system: OVCAR-5 ovarian
[31] = test system: OVCAR-8 ovarian
[32] = test system: RPMI-8226 leukemia
[33] = test system: RXF 393 renal
[34] = test system: SF-268 CNS
[35] = test system: SF-295 CNS
[36] = test system: SF-539 CNS
[37] = test system: SK-MEL-2 melanoma
[38] = test system: SK-MEL-28 melanoma
[39] = test system: SK-MEL-5 melanoma
[40] = test system: SK-OV-3 ovarian
[41] = test system: SN12C renal
[42] = test system: SNB-19 CNS
[43] = test system: SNB-75 CNS
[44] = test system: SNB-78 CNS
[45] = test system: SR leukemia
[46] = test system: SW-620 colon
[47] = test system: TK-10 renal
[48] = test system: U251 CNS
[49] = test system: UACC-257 melanoma
[50] = test system: UO-31 renal
[51] = test system: XF 498 CNS
[52] = test system: CCRF-CEM leukemia
[53] = test system: DLD-1 colon
[54] = test system: HOP-18 NSCLC
[55] = test system: LXFL 529 NSCLC
[56] = test system: NCI-H522 lung
[57] = test system: UACC-62 melanoma

With `FC(F)(F)c1ccccc1C=NC12CC3CC(CC(C3)C1)C2` the TGI [1] was greater than 100 µM, the TGI [2] was greater than 100 µM and the TGI [3] was greater than 100 µM. It also gave a TGI [4] greater than 100 µM, a TGI [5] greater than 100 µM and a TGI [6] greater than 100 µM. The TGI [7] was greater than 100 µM, the TGI [8] was greater than 100 µM and the TGI [9] was greater than 100 µM. It also gave a TGI [10] greater than 100 µM, a TGI [11] greater than 100 µM and a TGI [12] greater than 100 µM. For the same molecule, the TGI [13] was greater than 100 µM, the TGI [14] was greater than 100 µM and the TGI [15] was greater than 100 µM. For the same molecule, the TGI [16] was greater than 100 µM, the TGI [17] was greater than 100 µM and the TGI [18] was greater than 100 µM. It also gave a TGI [19] greater than 100 µM, a TGI [20] greater than 100 µM and a TGI [21] greater than 100 µM. For the same molecule, the TGI [22] was greater than 100 µM, the TGI [23] was greater than 100 µM and the TGI [24] was greater than 100 µM. It also gave a TGI [25] greater than 100 µM, a TGI [26] greater than 100 µM and a TGI [27] greater than 100 µM. For the same molecule, the TGI [28] was greater than 100 µM, the TGI [29] was greater than 100 µM and the TGI [30] was greater than 100 µM. It also gave a TGI [31] greater than 100 µM, a TGI [32] greater than 100 µM and a TGI [33] greater than 100 µM. For the same molecule, the TGI [34] was greater than 100 µM, the TGI [35] was greater than 100 µM and the TGI [36] was greater than 100 µM. The TGI [37] was greater than 100 µM, the TGI [38] was greater than 100 µM and the TGI [39] was greater than 100 µM. For the same molecule, the TGI [40] was greater than 100 µM, the TGI [41] was greater than 100 µM and the TGI [42] was greater than 100 µM. The TGI [43] was greater than 100 µM, the TGI [44] was greater than 100 µM and the TGI [45] was greater than 100 µM. The TGI [46] was greater than 100 µM, the TGI [47] was greater than 100 µM and the TGI [48] was greater than 100 µM. The TGI [49] was greater than 100 µM, the TGI [50] was 12.1 µM and the TGI [51] was greater than 100 µM.

`O=C1CC23CC(=O)CC2(C1)c1ccccc1C3=O` (stereo not drawn) gave a TGI [1] greater than 100 µM, a TGI [3] greater than 100 µM and a TGI [4] greater than 100 µM. The TGI [5] was greater than 100 µM, the TGI [52] was greater than 100 µM and the TGI [6] was greater than 100 µM. It also gave a TGI [53] greater than 100 µM, a TGI [7] greater than 100 µM and a TGI [8] greater than 100 µM. It also gave a TGI [9] greater than 100 µM, a TGI [10] greater than 100 µM and a TGI [11] greater than 100 µM. For the same molecule, the TGI [13] was greater than 100 µM, the TGI [54] was greater than 100 µM and the TGI [14] was greater than 100 µM. It also gave a TGI [15] greater than 100 µM, a TGI [16] greater than 100 µM and a TGI [17] greater than 100 µM. The TGI [18] was greater than 100 µM, the TGI [19] was greater than 100 µM and the TGI [20] was greater than 100 µM. The TGI [55] was greater than 100 µM, the TGI [21] was greater than 100 µM and the TGI [22] was greater than 100 µM. It also gave a TGI [23] greater than 100 µM, a TGI [24] greater than 100 µM and a TGI [25] greater than 100 µM. The TGI [26] was greater than 100 µM, the TGI [27] was greater than 100 µM and the TGI [56] was greater than 100 µM. It also gave a TGI [28] greater than 100 µM, a TGI [30] greater than 100 µM and a TGI [31] greater than 100 µM. For the same molecule, the TGI [32] was greater than 100 µM, the TGI [33] was greater than 100 µM and the TGI [34] was greater than 100 µM. It also gave a TGI [35] greater than 100 µM, a TGI [36] greater than 100 µM and a TGI [37] greater than 100 µM. It also gave a TGI [38] greater than 100 µM, a TGI [40] greater than 100 µM and a TGI [41] greater than 100 µM. For the same molecule, the TGI [42] was greater than 100 µM, the TGI [43] was greater than 100 µM and the TGI [44] was greater than 100 µM. For the same molecule, the TGI [46] was greater than 100 µM, the TGI [47] was greater than 100 µM and the TGI [48] was greater than 100 µM. For the same molecule, the TGI [49] was greater than 100 µM, the TGI [57] was greater than 100 µM and the TGI [50] was greater than 100 µM. For the same molecule, the TGI [51] was greater than 100 µM.
